# Reference: article PMC12497685, “Anticoronavirus Isoquinoline Alkaloids: Unraveling the Secrets of Their Structure–Activity Relationship” (Influenza and Other Respiratory Viruses, 2025)
# Where two headings read alike, the source gives them in different places.
# How the values were obtained:
# Type in all cases: cell-based
# [1] = tested on: SARS‐CoV‐2 spike protein pseudotyped lentivirus, D614G variant; settings: read-out: Pseudovirus assay, IC50, D614G
# [2] = tested on: SARS‐CoV‐2 spike protein pseudotyped lentivirus, D614G, Delta, and Omicron variants; settings: for IC50: read-out: Pseudovirus assay, IC50 values as a range over D614G, Delta, and Omicron variants
# [3] = tested on: SARS‐CoV‐2 spike protein pseudotyped lentivirus, Delta variant; assay: organism not typed; settings: read-out: Pseudovirus assay, IC50, Delta
# [4] = tested on: SARS‐CoV‐2 spike protein pseudotyped lentivirus, Omicron variant; assay: organism not typed; settings: read-out: Pseudovirus assay, IC50, Omicron
Compound,IC50 ([1]; mean ± SEM (n = 3)),IC50 [2],IC50 ([3]; mean ± SEM (n = 3)),IC50 ([4]; mean ± SEM (n = 3)),IC50 [1],IC50 ([3]; HEK-293T),IC50 ([4]; HEK-293T),activity in SARS‐CoV‐2 S‐protein and ACE2 binding (pseudovirus) assay (in words) [2]
"CC(C)C[C@H](NC(=O)[C@H]1O[C@@H]1C(=O)O)C(=O)NCCCCN=C(N)N [E‐64, reference compound]",23100 ± 630 nM,22700 to 23100 nM,23100 ± 1300 nM,22700 ± 1280 nM,–,–,–,–
"COc1cc2c3cc1Oc1c(O)c(OC)cc4c1[C@@H](Cc1ccc(O)c(c1)Oc1ccc(cc1)C[C@@H]3N(C)CC2)N(C)CC4 [Compound 19, (+)‐obamegine]",–,–,–,–,1400 ± 350 nM,2610 ± 420 nM,1190 ± 160 nM,–
(+)‐aromoline [Compound 16],–,470 to 660 nM,470 ± 80 nM,860 ± 120 nM,670 ± 90 nM,–,–,–
"COc1ccc2cc1Oc1ccc(cc1)C[C@H]1c3c(cc4c(c3Oc3cc5c(cc3OC)CCN(C)[C@@H]5C2)OCO4)CCN1C [Cepharantine, Cepharanthine, reference compound]",–,–,–,–,480 ± 90 nM,1640 ± 180 nM,1310 ± 70 nM,–
(±)‐Haemanthidine [Compound 1],> 10000 nM,–,> 10000 nM,–,–,–,–,inactive at nontoxic concentration
"COc1cc2c3cc1Oc1c(OC)c(OC)cc4c1[C@@H](Cc1ccc(O)c(c1)Oc1ccc(cc1)C[C@@H]3N(C)CC2)N(C)CC4 [Compound 17, (+)‐berbamine]",–,–,–,–,2230 ± 490 nM,2560 ± 160 nM,2290 ± 290 nM,–
